# Source: US20130190289A1, “COMPOUNDS AND METHODS FOR THE TREATMENT OR PREVENTION OF FLAVIVIRUS INFECTIONS” (priority 2010, published 2013)
# Read-outs that look alike come from different tables or passages of the source.
# Columns and labels:
# [1] = system: HCV replicon (genotype 1b) in Huh7 cell line ET; test: microbe, parasite or virus in culture; format: cell-based, HCV genotype 1b
# [2] = system: Huh-7 ET, Molt-4, DU-145, Hep-G2 and SH-SY5Y cells; test: [3H]Thymidine incorporation assay (cell toxicity); conditions: read-out: [3H]Thymidine CC50; [3H]thymidine incorporation, cell toxicity; mean value class; cell line not given
# [3] = system: HCV sub-genomic replicon of genotype 1a in replicon cell line W11.8; test: microbe, parasite or virus in culture; format: cell-based, HCV genotype 1a
# Excerpt: This procedure below describes the HCV replicon assay using a Huh7 hepatoma cell line harboring a highly cell culture-adapted replicon (genotype 1b) (hereafter named cell line ET). The ET cells contained the highly cell culture-adapted replicon I389luc-ubi-neo/NS3-3′/5.1 construct that carried, in addition to the neomycin gene, an integrated copy to the firefly luciferase gene (Krieger, N; Lohmann, V; Bartenschlager, R. Enhancement of hepatitis C virus RNA replication by cell culture-adaptive mutations. J. Virol. 2001, 75, 4614-4624). A replicon cell line W11.8, containing the 1a genotype of HCV was also used. These two cell lines (genotype 1b and 1a) allowed measurement of RNA replication and translation by measuring luciferase activity (against genotype 1b) or by measuring the NS5A level using the ELISA assay (against genotype 1a). […] ET cell lines were maintained in cultures at a sub-confluent level (<85%). The culture media used for cell passaging consisted of DMEM (Gibco BRL Laboratories, Mississauga, ON, Canada) supplemented with 10% fetal bovine serum with 1% penicilin/streptomycin, 1% glutamine, 1% sodium pyruvate, 1% non-essential amino acids, and 180 µg/ml of G418 final concentration.
# Replicon cell lines W11.8 containing a sub-genomic replicon of genotype 1a was used for the HCV Replicon Cell-Based detection using the ELISA. The RNA replication in presence of different drug concentrations was indirectly measured in these cell lines by the level of NS5A protein content upon drug treatment for four days. The NS5A is a non-structural protein of HCV and is used as marker of HCV replication in this assay.
# For the treatment of the cells with the testing drug, Culture medium was removed from the 175 cm^2 T-flask by aspiration. Cell monolayer was rinsed with 10-20 mL of PBS 1× at room temperature. PBS was removed by aspiration. Cells were trypsinized using 3 mL of Trypsin (0.25%)/EDTA (0.1%) solution. Flasks were incubated at 37° C. (incubator) for 7 minutes. Complete medium (9 mL) without G418 is then added. Cell clumps were disrupted by pipetting up and down several times.
# The cell suspension was then transferred to a 50 mL Falcon polypropylene tube. Cells were then counted several times using the haemocytometer. Cells were diluted at 50,000 cells/mL with complete DMEM without G418, then transferred into a sterile reservoir. Using a multichannel pipet, approximately 5,000 viable cells (100 μL) were plated per well in a white opaque 96-well microtiter plate. After an incubation period of 2-4 hours at 37° C. in a 5% CO2 incubator, compounds were added at various concentrations.
# Drugs were resuspended in DMSO at a stock concentration of 100 mM or 10 mM. […] Then, drugs were diluted at twice the final concentration in the same medium (without G418) described earlier, in sterile 96-deep well plate and according to a particular template (see Appendix). One volume (100 μL) of each drug dilution was then added to each well that contains cells.
# Sixteen wells were used as control (0% inhibition) without drug. Eight wells were used as background control (100% inhibition) containing 2 μM (final concentration) of the reference compound. […] Values from 100% inhibited wells were averaged and used as the background value. Cells are further incubated for 4 days at 37° C. in a 5% CO2 incubator.
# For the measurement of NS5A protein content, following the incubation time of four days, the media was throwed into an appropriate waste container by inverting the plate. Any residual liquid was removed by tapping gently on absorbent paper several times. The plates were then washed once with 150 μL of PBS per well, and then incubated for 5 minutes at room temperature on a shaker (500 rpm).
# [4] = [3H]Thymidine incorporation assay (cell toxicity); conditions: human
# [5] = read-out: HCV-Replicon-(Luci-ET) 1b_IC50
# [6] = Hepatitis C virus, Huh-7, 96 h, read-out: HCV-Replicon (Luci-ET)-1b_IC50
# [7] = Hepatitis C virus, W11.8, 96 h, read-out: HCV-Replicon-ELISA-1a IC50
SMILES,"IC50 [1, 5]",CC50 [2],CC50 at 72 h [4],other results
COC(C)C(C(=O)N1CCOCC1)N(C(=O)C1CCC(C)CC1)c1cc(C#CC(C)(C)C)sc1C(=O)O (centres unmarked) [Compound 65],< 100 nM,> 100000 nM,,
CO[C@H](C)[C@@H](C(=O)N(C)C)N(c1cc(C#CC(C)(C)C)sc1C(=O)O)C(=O)[C@H]1CC[C@H](C)CC1 [Compound 57],< 100 nM,> 100000 nM,,
COC(C)C(C(=O)N(C)C)N(C(=O)C1CCC(C)CC1)c1cc(C#CC(C)(C)C)sc1C(=O)O (centres unmarked) [Compound 75],< 100 nM,10000 to 100000 nM,,
CC(C)C#Cc1cc(N(CC(=O)N2CC3(COC3)C2)C(=O)C2CCC(C)CC2)c(C(=O)O)s1 (centres unmarked) [Compound 71],< 100 nM,> 100000 nM,,
CC[C@@H](C(=O)N1CCN(C)CC1)N(c1cc(C#CC(C)(C)C)sc1C(=O)O)C(=O)[C@H]1CC[C@H](C)CC1 [Compound 82],< 100 nM,> 100000 nM,,IC50 ([3]; read-out: HCV-Replicon-ELISA-1a IC50): < 100 nM
CC1CCC(C(=O)N(c2cc(C#CC(C)(C)C)sc2C(=O)O)C2CCN(C)C2=O)CC1 (centres unmarked) [Compound 83],,,> 100000 nM,"IC50 ([1]; Hepatitis C virus, Huh-7, read-out: HCV-Replicon-(Luci-ET) 1b_IC50): < 100 nM; IC50 ([3]; Hepatitis C virus, W11.8, read-out: HCV-Replicon-ELISA-1a IC50): < 100 nM"
"CC(C)N1CCCC[C@H](N(c2cc(C#CC(C)(C)C)sc2C(=O)O)C(=O)[C@H]2CC[C@H](C)CC2)C1=O [Compound 146, (S)-5-(3,3-Dimethylbut-1-ynyl)-3-((trans)-4-methyl-N-(1-isopropyl-2-oxoazepan-3-yl)cyclohexanecarboxamido)thiophene-2-carboxylic acid]",,,10000 to 100000 nM,"IC50 [1, 6]: < 100 nM; IC50 [3, 7]: < 100 nM"
"CN1CCC[C@H](N(C(=O)c2ccc(Cl)cc2Cl)c2cc(C#CC(C)(C)C)sc2C(=O)O)C1=O [Compound 140, (S)-5-(3,3-Dimethylbut-1-ynyl)-3-[(2,4-dichlorobenzoyl)-N-(1-methyl-2-oxopiperidin-3-yl)amino]-thiophene-2-carboxylic acid]",,,> 100000 nM,"IC50 [1, 6]: < 100 nM; IC50 [3, 7]: < 100 nM"
